Measurements reported in patent US4377687A, “Analogs of 1-(2-chloroethyl)-1-nitroso-3-(cycloheyl)-urea substituted by heterocyclic rings or alkyl radicals” (Stiftung Deutsches Krebsforschungszentrum, priority 1978, dated 1983).
Read-outs that look alike come from different tables or passages of the source.

Key:
[1] = test system: Yoshida sarcoma; type: in vivo, rat (male Sprague-Dawley rats); conditions: for tumor-free animals at the end of the experiment (in words) / increase in tumor-free animals (cures) above controls: 120 days; for increase in tumor-free animals (cures) above controls: BCNU, MeCCNU 45, dimethylmorpholine-CNU 45, piperidino-CNU 15, picolyl-3-CNU.HCl 25 mg/kg; for M = median survival time: i.p. day 8; for effect on survival time / life expectancy (in words): experiments 1-4, MeCCNU 45, morpholino-CNU 28 (exp. 3 and 5), dimethylmorpholine-CNU 45, piperidino-CNU 15, picolyl-3-CNU 25, picolyl-3-CNU.HCl 25 mg/kg; for chemotherapeutic activity against Yoshida sarcoma in the colon wall (in words): i.p.; for effect on the survival time on retest (in words): Experiment 5, cyclophosphamide as a standard
Procedure: The chemotherapeutic activity of nitrosoureas was compared in antitumor tests using Yoshida sarcoma ascited cells implanted into the wall of the descending colon in Sprague-Dawley rats.
(§1) Male Sprague-Dawley rats were used in the experiments. Yoshida sarcome in ascites form was maintained in the same strain of rats by serial intraperitoneal injection of 0,5 ml of ascites fluid.
(§2) 3×10^6 cells were injected into the colon wall in a manner known per se. The chemotherapeutic treatment was carried out on the eighth day after implantation of the tumor cells.
(§3) Water-insoluble compounds were dissolved in Cremophor EL/ethanol/physiological saline (20:20:60: vol.%). Water-soluble substances were dissolved in physiological saline. Cremophor EL is a surfactant on the basis of polyethoxylated castor oil. All test compounds were administered introperitoneally. The nitrosoureas were applied at approximately equitoxic doses corresponding to about 80% of the acute LD50 values observed in healthy rats of the same strain over a 28-day observation period.
(§4) Each experiment involved an untreated control group and a varying number of treated groups. Individual survival times were counted as days after tumor inoculation. At the time of death a record of whether an animal was tumor-free or not was made. All animals alive 120 days after tumor inoculation were killed. Animals that according to macroscopic examination had no tumor at the end of the experiment were considered as cured. Since in a number of control rats also no tumors occurred after 120 days the differences in cures between controls and treated animals rather than absolute numbers are reported. Differences in survival were evaluated statistically by individual comparisons between treated rats and controls using a nonparametric log-rank test (Kalbfleisch and Prentice, The statistical analysis of failure time data, Wiley, New York, 1979). Numerical evaluation was performed using a computerized system.

[2] = Mean animal weight / weight gain after tumor transplantation; type: in vivo, rat (Sprague-Dawley rats); conditions: CP 70 (exp. 1-3), BCNU 25, MeCCNU 45 (exp. 1), picolyl-3-CNU 25, its HCl 25 (exp. 2), morpholino-CNU 28, piperidino-CNU 15 (exp. 3), dimethylmorpholino-CNU 45 mg/kg (exp. 4); for Mean animal weight on day 50: day 50 after tumor transplantation; for Mean animal weight on day 100: day 100 after tumor transplantation
Procedure: as §1, §2, §3
In all treated animals and at all doses tested the mean weight gain was lower than in the controls. Table 3 gives the mean animal weights measured 50 and 100 days after tumor transplantation in experiments 1 to 5.

[3] = test system: Yoshida sarcoma; type: in vivo, rat (male Sprague-Dawley rats); conditions: i.p.
[4] = Water solubility
[5] = Stability of the substance; type: physicochemical
[6] = test system: rat leukemia L 5222; test: Chemotherapeutic activity against rat Leukemia L5222; type: in vivo, rat (BD IX rats); conditions: rat, in vivo
Procedure: Chemotherapeutic activity of methylformylamino-CNU against rat Leukemia L5222 (CNU=chloroethyl-nitroso-urea)
The compound to be tested was solved in Chremophor EL/ethanol/physiological saline and a single dose was administered intraperitoneally into tumor inoculated BD IX rats. The experiment involved an untreated control group and a number of treated groups. The doses used and the effects of the praeterminal treatment are summarized in the following Table from which the cures (animals free of tumor after 120 days) and the increase in life span (ILS, expressed as percentage of survival of the treated test group to the untreated control group) are evident.
Considering the fact that the true measure of the effectiveness of a drug against a neoplastic desease is the ability of the drug to kill the neoplastic cells at dosages that are not toxic to the host animal and that a quantitative evaluation of drug action is usually obtained by using the L1210 leucemia system in mice, it will be realized that in this test the tumor cells are injected into the peritoneal cavity of a mouse which thereafter is treated with the drug to be tested at a very early time after the inoculation of the tumor, i.e. at the first or second day after tumor inoculation. Thus such screening is done under very favourable test conditions for the drug. Contrary thereto the administration of the drug to be tested is performed relatively late in the case of the rat leucemia L5222, i.e. at the 8th day after tumor inoculation. It must, therefore, be taken that at that time tumor cells have colonized the cerebral region, i.e. the meninges, so that cures can only be obtained if the drug has an activity high enough to kill the leucemia cells in the cerebral region in a praeterminal state. Thus by far more severe test conditions are involved when treating rat leucemia L5222 or type Yoshida sarcoma which is a tumor model and which are hard to influence by known drugs.

[7] = Toxicity in treated tumor-bearing rats (Yoshida sarcoma experiments); type: in vivo, rat (Sprague-Dawley rats); conditions: at the doses tested
Procedure: as §1, §2, §3, §4

[8] = Experiment 4, 45 mg/kg, 30 initial animals
[9] = Experiment 3, CP 70, morpholino-CNU 28, piperidino-CNU 15 mg/kg
[10] = Experiment 3, CP 70, morpholino-CNU 28, piperidino-CNU 15 mg/kg, 30 initial animals each
[11] = Experiment 5, CP 70, picolyl-3-CNU.HCl 25, morpholino-CNU 28, piperidino-CNU 15 mg/kg
[12] = Experiment 5, CP 70, picolyl-3-CNU.HCl 25, morpholino-CNU 28, piperidino-CNU 15 mg/kg, 15 initial animals (picolyl-3-CNU.HCl 14)
[13] = Experiment 5, CP 70, piperidino-CNU 15 mg/kg

| Compound | tumor-free animals at the end of the experiment (in words) [1] | increase in tumor-free animals (cures) above controls ([1]; CP (exp. 1-3)) [%] | chemotherapeutic activity against Yoshida sarcoma in the colon wall (in words) [1] | Mean animal weight on day 50 [2] [g] | Mean animal weight on day 100 [2] [g] | concentration reached in the distal colon (in words) [3] | water solubility (in words) [4] | effectiveness in rat leukemia L 5222 (in words) [6] | % M (median survival time, untreated control = 100) [1, 9] [%] | D1-120 = difference (%) between tf1-120 of treated and untreated animals [1, 9] [%] | D120 = difference (%) between tf120 of treated and untreated animals [1, 9] [%] | tf1-120 (%) (tf120 + animals dying of toxicity) [1, 9] | tf120 (%) (animals surviving day 120 without tumor) [1, 9] | tf1-120, No. (tf120 + animals dying of toxicity) [1, 10] | tf120, No. (animals surviving day 120 without tumor) [1, 10] | M = median survival time [1, 9] [days] | effect on the survival time on retest (in words) [1] | % M (median survival time, untreated control = 100) [1, 11] [%] | D1-120 = difference (%) between tf1-120 of treated and untreated animals [1, 11] [%] | D120 = difference (%) between tf120 of treated and untreated animals [1, 11] [%] | other results |
| --- | --- | --- | --- | --- | --- | --- | --- | --- | --- | --- | --- | --- | --- | --- | --- | --- | --- | --- | --- | --- | --- |
| CC1CN(NC(=O)N(CCCl)N=O)CC(C)O1 (centres unmarked) [Dimethylmorpholino-CNU] | remarkable increase in tumor-free animals | 20 | active | 250 | 250 | reached the distal colon at chemotherapeutically effective concentrations | water-soluble |  |  |  |  |  |  |  |  |  |  |  |  |  | % M (median survival time, untreated control = 100) ([1]; Experiment 4, 45 mg/kg): 374%; D1-120 = difference (%) between tf1-120 of treated and untreated animals ([1]; Experiment 4, 45 mg/kg): 27%; D120 = difference (%) between tf120 of treated and untreated animals ([1]; Experiment 4, 45 mg/kg): 20%; tf1-120 (%) (tf120 + animals dying of toxicity) ([1]; Experiment 4, 45 mg/kg): 47%; tf120 (%) (animals surviving day 120 without tumor) ([1]; Experiment 4, 45 mg/kg): 40%; tf1-120, No. (tf120 + animals dying of toxicity) [1, 8]: 14; tf120, No. (animals surviving day 120 without tumor) [1, 8]: 12; M = median survival time ([1]; Experiment 4, 45 mg/kg): 71 days; p for improvement of survival time / life expectancy ([1]; compared with controls, CP (exp. 1-3), dimethylmorpholine-CNU 45 mg/kg): < 0,05; effect on survival time / life expectancy (in words) ([1]; listed as Dimethylmorpholine-CNU): significantly improved the life expectancy; effect on survival time / life expectancy (in words) ([1]; listed as dimethylmorpholino-CNU): significant increase in survival time |
| NNC(=O)N(CCCl)N=O [Example 8, 1-(2-chloroethyl)-1-nitroso-3-amino-urea] |  |  |  |  |  |  |  |  |  |  |  |  |  |  |  |  |  |  |  |  | stability (in words) [5]: slightly stable; stability on storage (in words) ([5]; stored in the deep freezing compartment at -30° C.): stable for a few days |
| O=NN(CCCl)C(=O)NN1CCOCC1 [Morpholino-CNU, 1-(2-chloroethyl)-1-nitroso-3-(4-morpholino)-urea] | large number of tumor-free animals |  | clear chemotherapeutic activity | 270 | 270 | reached the distal colon at chemotherapeutically effective concentrations | water-soluble | very good effectiveness | > 686 | 41 | 34 | 70 | 63 | 21 | 19 | > 120 | significant increasing effect on the survival time | 180 | 0 | 0 | tumor-free animals at the end of the experiment (in words) ([1]; listed as morpholino-CNU): remarkable increase in tumor-free animals; tf1-120, No. (tf120 + animals dying of toxicity) [1, 12]: 0; tf120, No. (animals surviving day 120 without tumor) [1, 12]: 0; M = median survival time [1, 11]: 18 days; therapeutic results compared with methyl-CCNU / clinically established nitrosoureas (in words) ([1]; Yoshida sarcoma of the rat implanted in the colon): better therapeutic results than e.g. the compound methyl-CCNU; effect on survival time / life expectancy (in words) [1]: improved the survival times significantly; effect on survival time / life expectancy (in words) ([1]; listed as morpholino-CNU): significant increase in survival time; chemotherapeutic activity against Yoshida sarcoma in the colon wall (in words) ([1]; listed as morpholino-CNU): active; water solubility (in words) ([4]; listed as Example 2): highly water-soluble |
| O=NN(CCCl)C(=O)NN1CCCCC1 [Piperidino-CNU, 1-(2-chloroethyl)-1-nitroso-3-(1-piperidine)urea] | remarkable increase in tumor-free animals | 21 | active | 340 | 410 | reached the distal colon at chemotherapeutically effective concentrations | water-soluble | very good effectiveness | > 686 | 21 | 21 | 50 | 50 | 15 | 15 | > 120 | significant increasing effect on the survival time | 160 | 13 | 7 | tf1-120, No. (tf120 + animals dying of toxicity) [1, 12]: 2; tf120, No. (animals surviving day 120 without tumor) [1, 12]: 1; tf1-120 (%) (tf120 + animals dying of toxicity) [1, 13]: 13%; tf120 (%) (animals surviving day 120 without tumor) [1, 13]: 7%; M = median survival time [1, 11]: 16 days; effect on survival time / life expectancy (in words) [1]: significantly increased the survival time; effect on survival time / life expectancy (in words) ([1]; listed as piperidino-CNU): significant increase in survival time; toxicity (in words) [7]: No toxic effects were seen; toxicity (in words) ([7]; listed as piperidino-CNU): less toxic than cyclophosphamide |
